{
  "source": "patent US9567327B2",
  "about": "“Imidazo[1,2-a]pyridine derivatives as modulators of the 5-HT2A serotonin receptor useful for the treatment of disorders related thereto” (Arena Pharmaceuticals, Inc., priority 2007, dated 2017)",
  "key": {"[1]": {"system": "normal volunteers", "experiment": "APD125 Phase 1 trials / afternoon nap model of insomnia in normal volunteers", "assay_type": "in vivo, human", "source_text": "APD125, a potent and selective 5-HT2A serotonin receptor inverse agonist is a member of the genus disclosed in the European Patent EP1558582. […] These effects occurred at the expense of REM sleep. Sleep onset latency was not decreased by APD125."}, "[2]": {"system": "diabetic rats", "conditions": "cited from earlier work"}, "[3]": {"molecular_target": "human 5-HT2A serotonin receptor (Homo sapiens (Human), UniProt P28223)", "conditions": "0.5 nM [125I]DOI, COS7 membranes with recombinant human 5-HT2A; read-out: IC50 DOI Binding Assay"}, "[4]": {"system": "DOI-induced hypolocomotion in rats", "experiment": "Attenuation of DOI-induced hypolocomotion in rats", "assay_type": "in vivo, rat", "conditions": "male Sprague-Dawley rats, compound 1-10 mg/kg p.o., DOI 1 mg/kg s.c.", "description": "In this example, compounds of the invention were tested for inverse agonist activity by determining whether these compounds could attenuate DOI-induced hypolocomotion in rats in a novel environment. DOI is a potent 5-HT2A/2C receptor agonist that crosses the blood-brain barrier. The standard protocol used is described briefly below.\nMale Sprague-Dawley rats weighing between 200-350 g were used for all tests. Rats were housed three to four per cage.\n(R)-DOI HCl (C11H16INO2.HCl) was obtained from Sigma-Aldrich and was dissolved in 0.9% saline. Compounds of the invention were synthesized at Arena Pharmaceuticals Inc., San Diego, Calif. and were dissolved in 100% PEG400. DOI was injected s.c. in a volume of 1 mL/kg, while compounds of the invention were administered p.o. in a volume of 1 mL/kg.\nThe “Motor Monitor” (Hamilton-Kinder, Poway, Calif.) was used for all activity measurement. This apparatus recorded rears using infrared photobeams. […]\nIn determining the effects of compounds of the invention on DOI-induced hypoactivity, animals were first injected with vehicle or the compound of the invention (1-10 mg/kg) in their home cages. […] Ten minutes after DOI administration, animals were placed into the activity apparatus and rearing activity was measured for 10 min.\nResults (total rears over 10 min) were analyzed by t-test. […]"}, "[5]": {"system": "DOCA-salt induced hypertension in rats", "conditions": "cited from earlier work"}, "[6]": {"system": "glaucoma patients", "conditions": "cited from earlier work"}, "[7]": {"system": "JC virus", "conditions": "cited from earlier work"}, "[8]": {"system": "heatstroke", "conditions": "in vivo; cited from earlier work"}, "[9]": {"system": "spontaneously hypertensive rats", "conditions": "cited from earlier work"}, "[10]": {"system": "diabetic nephropathy", "conditions": "patients, 24 months of treatment; cited from earlier work"}, "[11]": {"system": "rats", "conditions": "thermal induced pain i.p., inflammatory pain intrathecal or i.p.; cited from earlier work"}, "[12]": {"system": "humans", "conditions": "sciatica from lumbar disc herniation; cited from earlier work"}},
  "data": [
    {"smiles": "COc1ccc(NC(=O)Nc2ccc(F)cc2F)cc1-c1c(Br)cnn1C", "note": "[APD125]", "values": [
      {"measurement": "effect on waking EEG", "setting": "[1]; Phase 1 trials, maximal effects at 40-80 mg", "result": "vigilance-lowering effects"},
      {"measurement": "microarousals, sleep stage shifts and awakenings after sleep onset", "setting": "[1]; afternoon nap model", "result": "decreased microarousals, the number of sleep stage shifts and number of awakenings after sleep onset"},
      {"measurement": "slow wave sleep and associated parameters", "setting": "[1]; afternoon nap model of insomnia, normal volunteers", "result": "increased slow wave sleep and associated parameters in a dose-dependent manner"},
      {"measurement": "sleep onset latency", "setting": "[1]; afternoon nap model, normal volunteers", "result": "not decreased"}
    ]},
    {"smiles": "O=CN1CCC(C(=O)NCCN2CCC(=C3c4ccccc4C=Cc4ccccc43)CC2)CC1", "note": "[AT-1015]", "values": [
      {"measurement": "correction of a 19.8% sciatic motor conduction deficit", "setting": "[2]", "result": "82.6-99.7%"}
    ]},
    {"smiles": "O=C(c1cccn2cc(-c3ccccc3)nc12)N1CCN(CCc2ccc(F)cc2)CC1", "note": "[Compound 9, (4-(4-Fluorophenethyl)piperazin-1-yl)(2-phenylimidazo[1,2-α]pyridin-8-yl)methanone]", "values": [
      {"measurement": "IC50", "setting": "[3]", "result": 46, "unit": "nM"}
    ]},
    {"smiles": "O=C(c1cccn2ccnc12)N1CCN(CC(F)c2ccc(F)cc2)CC1", "note": "(stereo not drawn) [Compound 10, (4-(2-Fluoro-2-(4-fluorophenyl)ethyl)piperazin-1-yl)(imidazo[1,2-α]pyridin-8-yl)methanone]", "values": [
      {"measurement": "IC50", "setting": "[3]", "result": 10, "unit": "nM"}
    ]},
    {"smiles": "O=C(c1cccn2ccnc12)N1CCN(CCc2ccccc2F)CC1", "note": "[Compound 18, (4-(2-Fluorophenethyl)piperazin-1-yl)(imidazo[1,2-α]pyridin-8-yl)methanone]", "values": [
      {"measurement": "attenuation of DOI-induced hypolocomotion (total rears over 10 min)", "setting": "[4]", "result": "attenuated DOI-induced hypolocomotion"}
    ]},
    {"smiles": "O=C(c1cccn2ccnc12)N1CCN(CCc2ccc(Cl)cc2Cl)CC1", "note": "[Compound 19, (4-(2,4-Dichlorophenethyl)piperazin-1-yl)(imidazo[1,2-α]pyridin-8-yl)methanone]", "values": [
      {"measurement": "attenuation of DOI-induced hypolocomotion (total rears over 10 min)", "setting": "[4]", "result": "attenuated DOI-induced hypolocomotion"}
    ]},
    {"smiles": "CN1CCN2c3ccccc3Cc3ccccc3C2C1", "note": "(stereo not drawn) [Mainserin]", "values": [
      {"measurement": "DOCA-salt induced hypertension", "setting": "[5]", "result": "prevent DOCA-salt induced hypertension"}
    ]},
    {"smiles": "O=C(c1ccc(F)cc1)C1CCN(CCn2c(=O)[nH]c3ccccc3c2=O)CC1", "note": "[ketanserin]", "values": [
      {"measurement": "intra ocular pressure (IOP)", "setting": "[6]", "result": "significantly lower IOP"},
      {"measurement": "JC virus infection of human glial cells", "setting": "[7]", "result": "inhibited JC virus infection of human glial cells"},
      {"measurement": "protection during heatstroke", "setting": "[8]", "result": "protect against circulatory shocks, intracranial hypertension and cerebral ischemia during heatstroke"},
      {"measurement": "blood pressure", "setting": "[9]", "result": "stabilize blood pressure"}
    ]},
    {"smiles": "Cc1nc2sccn2c(=O)c1CCN1CCC(=C(c2ccc(F)cc2)c2ccc(F)cc2)CC1", "note": "[ritanserin]", "values": [
      {"measurement": "correction of a 19.8% sciatic motor conduction deficit", "setting": "[2]", "result": "82.6-99.7%"},
      {"measurement": "JC virus infection of human glial cells", "setting": "[7]", "result": "inhibited JC virus infection of human glial cells"}
    ]},
    {"smiles": "COc1cccc(CCc2ccccc2OCC(CN(C)C)OC(=O)CCC(=O)O)c1", "note": "(stereo not drawn) [sarpogrelate]", "values": [
      {"measurement": "correction of a 19.8% sciatic motor conduction deficit", "setting": "[2]", "result": "82.6-99.7%"},
      {"measurement": "urinary albumin excretion level", "setting": "[10]", "result": "significantly reduced"},
      {"measurement": "intra ocular pressure (IOP)", "setting": "[6]", "result": "significantly lower IOP"},
      {"measurement": "analgesic effect", "setting": "[11]", "result": "significant analgesic effect"},
      {"measurement": "treatment of lower back pain, leg pain and numbness", "setting": "[12]", "result": "effective treatment"}
    ]}
  ]
}
